Key:
Format in all cases: in vivo
Echinochloa crus-galli [1] = assay: Test Example 4: herbicidal effect test by stem and leaf treatment in upland field; details: Echinochloa crus-galli; 120 g per 10 ares; sprayed seven days after sowing, upland soil; 14 days after application; read-out: weed inhibition rate
Echinochloa crus-galli [2] = assay: Test Example 3: herbicidal effect test by soil application in upland field; details: Echinochloa crus-galli, 120 g per 10 ares, sprayed one day after sowing, 14 days after application, read-out: weed inhibition rate
Summary of the method: (§1)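 Pre-emergence test: seeds mixed into top 1 cm of alluvial loam upland soil in pots; emulsifiable concentrate diluted in water sprayed on soil one day after sowing at 100 L/10 a, 120 g a.i./10 a. Weed inhibition rate (%) scored at 14 days, in duplicate.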

Digitaria ciliaris [3] = assay: as above; details: Digitaria ciliaris, 120 g per 10 ares, sprayed one day after sowing, 14 days after application, read-out: weed inhibition rate
Summary of the method: as §1

[4] = tested on: Echinochloa crus-galli var. formosensis; assay: Test Example 2: herbicidal effect test by application during growth period of paddy rice; details: Echinochloa crus-galli; 120 g per 10 ares; applied seven days after sowing, flooded pots; 14 days after application; read-out: weed inhibition rate
Summary of the method: (§2)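 Herbicidal effect was scored 14 days after treatment, in duplicate per concentration. Weeds sown 0–1 cm deep in puddled, fertilized paddy soil under about 3 cm of standing water received a water-diluted emulsifiable concentrate by dropper 7 days post-sowing, at 120 g a.i. per 10 ares.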

Monochoria vaginalis [5] = assay: as above; details: Pontederia vaginalis; 120 g per 10 ares; applied seven days after sowing, flooded pots; 14 days after application; read-out: weed inhibition rate
Summary of the method: as §2

Scirpus juncoides [6] = assay: as above; details: Schoenoplectiella juncoides; 120 g per 10 ares; applied seven days after sowing, flooded pots; 14 days after application; read-out: weed inhibition rate
Summary of the method: as §2

[7] = tested on: Echinochloa crus-galli var. formosensis; assay: Test Example 6: herbicidal effect test by application during growth period of paddy rice (low dose); details: Echinochloa crus-galli; 7.5 g per 10 ares; applied seven days after sowing, flooded pots; 14 days after application; read-out: weed inhibition rate
Summary of the method: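 Paddy soil in flooded Wagner pots (about 3 cm water), weeds sown at 0–1 cm, 30 seeds each, grown in a glass greenhouse. Seven days after sowing, water-diluted emulsifiable concentrate was dropped into the water at 7.5 g active ingredient per 10 ares. Weed inhibition rate (%) was scored 14 days after application, in duplicate.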

Echinochloa crus-galli [8] = assay: Test Example 8: herbicidal effect test by stem and leaf treatment in upland field (low dose); details: Echinochloa crus-galli; 7.5 g per 10 ares; sprayed seven days after sowing, upland soil; 14 days after application; read-out: weed inhibition rate
Digitaria ciliaris [9] = assay: Test Example 4: herbicidal effect test by stem and leaf treatment in upland field; details: Digitaria ciliaris; 120 g per 10 ares; sprayed seven days after sowing, upland soil; 14 days after application; read-out: weed inhibition rate
Monochoria vaginalis [10] = assay: Test Example 5: herbicidal effect test by soil application in paddy rice (low dose); details: Pontederia vaginalis, 336 h, 7.5 g per 10 ares, applied immediately after sowing, flooded pots, 14 days after application, read-out: weed inhibition rate
Summary of the method: (§3)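 Dose of 7.5 g a.i. per 10 ares, applied by dropper as diluted emulsifiable concentrate to flooded (~3 cm) paddy pots immediately after sowing seeds at 0–1 cm. Kept in a glass greenhouse; duplicate pots rated at 14 days post-application.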

Scirpus juncoides [11] = assay: as above; details: Schoenoplectiella juncoides, 336 h, 7.5 g per 10 ares, applied immediately after sowing, flooded pots, 14 days after application, read-out: weed inhibition rate
Summary of the method: as §3

C=C1C[C@]2(C)O[C@@]1(C(C)C)C[C@H]2OCc1ccccc1F [2-88, (1R,4S,5R)-5-((2-fluorobenzyl)oxy)-1-isopropyl-4-methyl-2-methylene-7-oxabicyclo[2.2.1]heptane]
≥ 80%: inhibition at 1200 g/ha (Echinochloa crus-galli [1]) | inhibition at 1200 g/ha (Echinochloa crus-galli [2]) | inhibition at 1200 g/ha (Digitaria ciliaris [3]) | inhibition at 1200 g/ha [4] | inhibition at 1200 g/ha (Monochoria vaginalis [5]) | inhibition at 1200 g/ha (Scirpus juncoides [6]) | inhibition at 75 g/ha [7] | inhibition at 75 g/ha (Echinochloa crus-galli [8]) | inhibition at 1200 g/ha (Digitaria ciliaris [9]) | inhibition at 75 g/ha (Monochoria vaginalis [10]) | inhibition at 75 g/ha (Scirpus juncoides [11])

CC(C)[C@]12C[C@@H](OCc3cccc(F)c3)[C@](C)(CC1=O)O2 [2-351, (1R,4S,5R)-5-((3-fluorobenzyl)oxy)-1-isopropyl-4-methyl-7-oxabicyclo[2.2.1]heptan-2-one]
≥ 80%: inhibition at 1200 g/ha (Echinochloa crus-galli [1]) | inhibition at 1200 g/ha (Echinochloa crus-galli [2]) | inhibition at 1200 g/ha (Digitaria ciliaris [3]) | inhibition at 1200 g/ha [4] | inhibition at 1200 g/ha (Monochoria vaginalis [5]) | inhibition at 1200 g/ha (Scirpus juncoides [6]) | inhibition at 75 g/ha [7] | inhibition at 75 g/ha (Echinochloa crus-galli [8]) | inhibition at 1200 g/ha (Digitaria ciliaris [9]) | inhibition at 75 g/ha (Monochoria vaginalis [10]) | inhibition at 75 g/ha (Scirpus juncoides [11])

Cc1cccc(F)c1CO[C@@H]1C[C@]2(C(C)C)O[C@@]1(C)CC2=O [2-353, (1R,4S,5R)-5-((2-fluoro-6-methylbenzyl)oxy)-1-isopropyl-4-methyl-7-oxabicyclo[2.2.1]heptan-2-one]
≥ 80%: inhibition at 1200 g/ha (Echinochloa crus-galli [1]) | inhibition at 1200 g/ha (Echinochloa crus-galli [2]) | inhibition at 1200 g/ha (Digitaria ciliaris [3]) | inhibition at 1200 g/ha [4] | inhibition at 1200 g/ha (Monochoria vaginalis [5]) | inhibition at 1200 g/ha (Scirpus juncoides [6]) | inhibition at 75 g/ha [7] | inhibition at 75 g/ha (Echinochloa crus-galli [8]) | inhibition at 1200 g/ha (Digitaria ciliaris [9]) | inhibition at 75 g/ha (Monochoria vaginalis [10]) | inhibition at 75 g/ha (Scirpus juncoides [11])

CC(C)[C@]12C[C@@H](OCc3c(F)cccc3Br)[C@](C)(CC1=O)O2 [2-355, (1R,4S,5R)-5-((2-bromo-6-fluorobenzyl)oxy)-1-isopropyl-4-methyl-7-oxabicyclo[2.2.1]heptan-2-one]
≥ 80%: inhibition at 1200 g/ha (Echinochloa crus-galli [1]) | inhibition at 1200 g/ha (Echinochloa crus-galli [2]) | inhibition at 1200 g/ha (Digitaria ciliaris [3]) | inhibition at 1200 g/ha [4] | inhibition at 1200 g/ha (Monochoria vaginalis [5]) | inhibition at 1200 g/ha (Scirpus juncoides [6]) | inhibition at 75 g/ha [7] | inhibition at 75 g/ha (Echinochloa crus-galli [8]) | inhibition at 1200 g/ha (Digitaria ciliaris [9]) | inhibition at 75 g/ha (Monochoria vaginalis [10]) | inhibition at 75 g/ha (Scirpus juncoides [11])

CC(C)[C@]12C=C[C@](C)(O1)[C@H](OCc1ccccc1)C2 [3-1, (1R,4S,5R)-4-methyl-5-phenylmethoxy-1-isopropyl-7-oxabicyclo[2.2.1]hept-2-ene]
≥ 80%: inhibition at 1200 g/ha (Echinochloa crus-galli [1]) | inhibition at 1200 g/ha (Echinochloa crus-galli [2]) | inhibition at 1200 g/ha (Digitaria ciliaris [3]) | inhibition at 1200 g/ha [4] | inhibition at 1200 g/ha (Monochoria vaginalis [5]) | inhibition at 1200 g/ha (Scirpus juncoides [6]) | inhibition at 75 g/ha [7] | inhibition at 75 g/ha (Echinochloa crus-galli [8]) | inhibition at 1200 g/ha (Digitaria ciliaris [9]) | inhibition at 75 g/ha (Monochoria vaginalis [10]) | inhibition at 75 g/ha (Scirpus juncoides [11])

Source: EP4707280A1, “1,4-CINEOLE DERIVATIVE AND INTERMEDIATE THEREOF, HERBICIDE CONTAINING SAID DERIVATIVE AS ACTIVE INGREDIENT, METHOD FOR USING HERBICIDE, AND METHOD FOR PREPARING AGROCHEMICAL COMPOSITION” (HOKKO CHEMICAL INDUSTRY CO., LTD., priority 2023, dated 2024)
